These results are taken from patent US4409207A, “Derivatives of clavulanic acid, a process for their preparation and their use” (Beecham Group Limited, priority 1978, dated 1983).

In one data set the test system is E. Coli JT 39. Briefly: standard MIC test of ampicillin with synergist, E. Coli JT 39. In kind it is cell-based. From the text:
(§1) The synergist referred to hereinafter is sodium 9-O-carboxamidomethylclavulanate.

The next data set deals with Kleb. E 70. Briefly: standard MIC test of ampicillin with synergist, Kleb. E 70. In kind it is cell-based.
Source text: as §1

For a further data set, the system named is Proteus C889. Briefly: standard MIC test of ampicillin with synergist, Proteus C889. In kind it is cell-based. The conditions noted are these: 0 μg/ml synergist (ampicillin alone).
Source text: as §1

Another data set concerns Staph. Russell. The experiment in a line: standard MIC test of ampicillin with synergist, Staph. Russell. It counts as cell-based.
Source text: as §1

Data set [1] can be described thus: toxic effects during testing at therapeutic doses in animals. In kind it is in vivo.
In another data set the test system is E. coli JT 39 infection. Briefly: E. coli JT 39 infection in mice, CD50 of amoxycillin with subcutaneous synergist. It counts as in vivo.
Data set [2] has as its system Staph. Russell, Kleb. E 70, Proteus C889, E. Coli JT 39. Briefly: standard MIC tests, synergy statement. It counts as cell-based. The following applies: with ampicillin.
Source text: as §1

Setting [3] is: 0 μg/ml synergist (ampicillin alone).
Setting [4] is: synergist alone, obtained in separate test.

The term MIC denotes the lowest concentration found to suppress growth.

SMILES strings stand for the structures.

As to `CC1(C)S[C@@H]2[C@H](NC(=O)[C@H](N)c3ccccc3)C(=O)N2[C@H]1C(=O)O` [Ampicillin, reference compound], the “MIC of Ampicillin” value with E. Coli JT 39 (setting [3]), in the data set on Kleb. E 70 (setting [3]), in the data set on Proteus C889 and in the data set with Staph. Russell (setting [3]) was above 32 µg/mL in each case.
Turning to `NC(=O)COC/C=C1\O[C@@H]2CC(=O)N2[C@H]1C(=O)O` [Example 2, Sodium 9-O-carboxamidomethylclavulanate], the MIC in the data set on E. Coli JT 39 (Escherichia coli, synergist alone, obtained in separate test) amounted to 31 µg/mL; in the data set on Kleb. E 70 (setting [4]), 31 µg/mL; in the data set on Staph. Russell (setting [4]), 31 µg/mL. The overt toxic symptoms result in data set [1] (in vivo) was “No overt toxic symptoms were observed”. In data set [1] (therapeutic doses), the “animal deaths due to toxic effects” value is recorded as “did not cause animal deaths due to toxic effects”. Moreover, the “effect of the compound alone on infection” value in the data set with E. coli JT 39 infection (compound of this example alone at 2 mg/kg×2) is “no effect”. The “synergy in standard MIC tests” value in data set [2] is on record as “demonstrated synergy”.
On to `CC1(C)S[C@@H]2[C@H](NC(=O)[C@H](N)c3ccc(O)cc3)C(=O)N2[C@H]1C(=O)O` [amoxycillin, reference compound], for which the CD50 of amoxycillin entry in the data set on E. coli JT 39 infection (amoxycillin alone) is listed as “greater than 500 mg/kg×2”.
